Assays:
SARS-CoV-2 = type: cell-based
SARS-CoV-1 = type: cell-based
MERS = type: cell-based

## CNCc1ccc(-c2cc(-c3nc(-c4ccc(S(=O)(=O)C(C)C)cc4)cnc3N)on2)cc1 [Compound 1, 3-[3-(4-Methylaminomethyl-phenyl)-isoxazol-5-yl]-5-[4-(propane-2-sulfonyl)-phenyl]-pyrazin-2-ylamine]
Calu-3
  cell viability: remains nearly unaffected
SARS-CoV-2
  inhibition in cells infected by SARS-CoV-2 compared with remdesivir: comparable with that of the antiviral reference substance remdesivir
  inhibition of virus replication: dose dependent inhibition
SARS-CoV-1
  inhibition of virus replication: dose dependent inhibition
MERS
  inhibition of virus replication: dose dependent inhibition

— patent US20230301991A1, “COMPOUNDS FOR THE TREATMENT OF VIRAL INFECTIONS” (priority 2020, published 2023)
